Results: patent US20240300975A1, “DIMETHYL-SUBSTITUTED THIAZOLOLACTAM COMPOUND AND USE THEREOF” (D3 Bio (Wuxi) Co., Ltd., priority 2021, published 2024)

Legend:
monkey plasma albumin = assay: Plasma protein binding (PPB), monkey plasma; type: in vitro ADME; conditions: ultracentrifugation, 37° C., 4 h
Procedure: The binding degree of the assay compound to human/mouse/rat/canine/monkey plasma albumin was studied.
• 1) Matrix preparation: on the day of the assay, plasma was thawed in cold water and centrifuged at 3220 rpm for 5 min to remove all clots. The pH of the resulting plasma was measured and adjusted to 7.4±0.1 using 1% phosphoric acid or 1N sodium hydroxide as needed. • 2) Dilution procedure for the assay compound: the assay compound was dissolved in dimethyl sulfoxide (DMSO) to prepare stock solutions with concentrations of 10 mM and 2 mM, respectively. A 40 μM working solution was prepared by diluting 2 μL of stock solution (2 mM) with 98 μL of DMSO. A 400 μM working solution of the control compound was prepared by diluting 10 μL of stock solution with 240 μL of DMSO. The working solution of the compound (5 μL) was mixed well with a blank matrix (995 μL) at a ratio of 1:200 to prepare a loading matrix.
• a) An equal volume of 30 μL of loading matrix (n=2) was transferred to a sample collection plate to prepare a time 0 (TO) sample for residue determination. The sample was immediately matched with the corresponding blank buffer to a final volume of 60 μL, and the volume ratio of plasma to buffer in each well was 1:1. […] The mixture was centrifuged at 4000 rpm for 20 min and 100 μL of supernatant from each sample was analyzed by LC-MS/MS.

In vivo PK study in mice = conditions: female BALB/c mice
Description: Female BALB/c mice were used as assay animals to determine the blood concentration of the compound and evaluate the pharmacokinetic behavior after a single administration.
Four healthy adult female BALB/c mice were selected, wherein 2 mice were in an intravenous injection group and 2 mice were in an oral group. The vehicle in the intravenous injection group was 5% DMSO+95% (20% HP-β-CD). The compound to be assayed was mixed with an appropriate amount of vehicle for intravenous injection, vortexed and sonicated to prepare a clear solution of 0.5 mg/mL. The clear solution was filtered by a microporous membrane, and then ready for use. The vehicle in the oral group was 5% DMSO+95% (20% HP-β-CD). The compound to be assayed was mixed with the vehicle, vortexed and sonicated to prepare a solution of 0.3 mg/mL. Mice were administered 1 mg/kg intravenously or 3 mg/kg orally, and then whole blood was collected for a certain period. Plasma was prepared. The drug concentration was analyzed by LC-MS/MS method, and the pharmacokinetic parameters were calculated by Phoenix WinNonlin software (Pharsight, USA).

[1] = In vivo PK study in beagle dogs; conditions: male beagle dogs
Procedure: Male beagle dogs were used as assay animals. After a single administration, the plasma concentration of the compound was measured and the pharmacokinetic behavior was evaluated.
Five healthy adult male beagle dogs were selected, wherein 2 were in an intravenous injection group, and 3 were in an oral group. The vehicle in the intravenous injection group was 5% DMSO+95% (20% HP-β-CD). The compound to be assayed was mixed with an appropriate amount of vehicle for intravenous injection, and dissolved with stirring to prepare a clear solution of 0.4 mg/mL. The clear solution was filtered by a microporous membrane, and then ready for use. The vehicle in the oral group was 5% DMSO+95% (20% HP-β-CD). The compound to be assayed was mixed with the vehicle, and dissolved with stirring to prepare a solution of 0.3 mg/mL. Cynomolgus monkeys were administered 1 mg/kg intravenously or 3 mg/kg orally, and then whole blood was collected for a certain period. Plasma was prepared. The drug concentration was analyzed by LC-MS/MS method, and the pharmacokinetic parameters were calculated by Phoenix WinNonlin software (Pharsight, USA).

ERK1 = ERK1 (Homo sapiens (Human), UniProt P27361); assay: In vitro ERK1 kinase activity assay (33P-ATP, filter-binding); type: biochemical
Chain of ERK1 (P27361 whole entry): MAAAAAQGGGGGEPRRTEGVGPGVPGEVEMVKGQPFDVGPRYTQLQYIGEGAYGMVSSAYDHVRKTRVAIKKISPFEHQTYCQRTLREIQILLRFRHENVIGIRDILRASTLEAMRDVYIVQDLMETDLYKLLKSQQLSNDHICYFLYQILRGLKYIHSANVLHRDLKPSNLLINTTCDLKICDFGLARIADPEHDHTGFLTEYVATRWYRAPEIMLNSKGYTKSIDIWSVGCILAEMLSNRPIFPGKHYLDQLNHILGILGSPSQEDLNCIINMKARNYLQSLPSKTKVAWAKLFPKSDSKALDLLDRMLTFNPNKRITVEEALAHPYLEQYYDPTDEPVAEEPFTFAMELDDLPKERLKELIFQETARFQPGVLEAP
Procedure: The ability of compounds to inhibit ERK1 and ERK2 kinase activity was measured.
20 mM Hepes (pH 7.5), 10 mM MgCl2, 1 mM ethylenebis(oxyethylenenitrilo)tetraacetic acid (EGTA), 0.02% Brij35, 0.02 mg/mL bovine serum albumin (BSA), 0.1 mM Na3VO4, 2 mM dithiothreitol (DTT), 1% DMSO.
The assay compound was dissolved in 100% DMSO to prepare a stock solution of specific concentration. The compound was serially diluted in DMSO solution using Integra Viaflo Assist smart pipette.
• a) The substrate MBP was prepared in freshly prepared reaction buffer; • b) ERK1 (or ERK2) kinase was added to the above-mentioned MBP solution and mixed gently; • c) The compound dissolved in 100% DMSO was added to the kinase reaction system using ultrasound technology (Echo550; nanoliter range), and the mixture was incubated at room temperature for 20 minutes; • d)^33P-ATP (specific concentration of […]) was added to the reaction system, and the reaction was started at this time; • e) The mixture was incubated at room temperature for 2 hours; • f) The amount of radioactivity was detected by filter-binding method; • g) ERK1 (or ERK2) kinase activity was calculated as the ratio of the remaining kinase activity in the assay sample to the kinase activity of the control group (treated by DMSO).
Curve was fitted using Prism (GraphPad software) and IC50 values were calculated.

Cc1cccc(CN2C(=O)c3nc(-c4nc(Nc5ccnn5C)ncc4C)sc3C2(C)C)n1 [WX001]
Plasma protein binding rate (unbound %) (monkey plasma albumin): 2.6%
Oral DNAUC (AUCPO/Dose) (In vivo PK study in mice; 3 mg/kg orally): 787.18 nM · h/mpk
clearance (In vivo PK study in mice; mouse, plasma, iv, 1 mg/kg intravenously): 27.5 mL/min/kg
Vd (In vivo PK study in mice; mouse, plasma, iv, 1 mg/kg intravenously, read-out: Vdss): 1.6 L/kg
bioavailability (In vivo PK study in mice; mouse, plasma, oral, 1 mg/kg intravenously / 3 mg/kg orally, read-out: F % (oral bioavailability)): 62%
half-life (In vivo PK study in mice; mouse, plasma, single administration): 1.29 h
Cmax (In vivo PK study in mice; mouse, po, 3 mg/kg orally, plasma): 2120 nM
clearance ([1]; dog, plasma, iv, 1 mg/kg intravenously): 19 mL/min/kg
Vd ([1]; dog, plasma, iv, 1 mg/kg intravenously, read-out: Vdss): 1.94 L/kg
bioavailability ([1]; dog, plasma, oral, 1 mg/kg intravenously / 3 mg/kg orally, read-out: F % (oral bioavailability)): 52%
half-life ([1]; dog, plasma, single administration): 1.09 h
Cmax ([1]; dog, po, 3 mg/kg orally, plasma): 1230 nM
Oral DNAUC (AUCPO/Dose) ([1]; 3 mg/kg orally): 1099.27 nM · h/mpk
IC50 (ERK1): 1.2 nM
